Results reported in patent US20010006969A1, “PYRIMIDINE NUCLEUS-CONTAINING COMPOUND AND A MEDICAMENT CONTAINING THE SAME FOR A BLOOD OXYGEN PARTIAL PRESSURE AMELIORATION, AND A METHOD FOR PREPARING THE SAME” (priority 1997, published 2001).
Where a name gives a salt, the structure may show the parent alone.

Columns and labels:
hypoxemic model rats = assay: Determination of oxygen partial pressure increasing action (arterial blood PaO2 gain in hypoxemic model rats); assay type: in vivo, Sprague-Dawley male rats; settings: urethane-anesthetized rats, i.v. continuously 0.1 mg/kg/min, PaO2 measured 10 minutes after completion of administration, gain before vs after
Method: Determination of oxygen partial pressure increasing action
Actions of the quinazoline derivatives of the present invention to increase oxygen partial pressure in the arterial blood were determined according to the following method:
Sprague-Dawley male rats having body weights of about 250 g were anesthetized (i.p.) with urethane and cannulated to the respiratory tracts, femoral arteries and femoral veins. An olive oil-charcoal powder suspension (10 mg/ml) was introduced in an amount of 0.8 ml/kg through the respiratory tract cannulae into the lungs to cause the rats to hypoxic state (PaO2≦75 mmHg). The quinazoline derivatives listed in Table 1 were intravenously administered to these hypoxemic model rats continuously at a rate of 0.1 mg/kg/min, and arterial blood oxygen partial pressure value (PaO2) of each rat was measured at the time point of 10 minutes after completion of administration using a blood gas analyzer (Ciba Corning 800 series). Gains (APaO2) were determined based on results of PaO2 measurement made before and after administration of the test compounds.
Actions of the thienopyrimidine derivatives of the present invention to increase oxygen partial pressure in the arterial blood were determined according to the following method:
Sprague-Dawley male rats having body weights of about 250 g were anesthetized (i.p.) with urethane and cannulated to the respiratory tracts, femoral arteries and femoral veins. An olive oil-charcoal powder suspension (10 mg/ml) was introduced in an amount of 0.8 ml/kg through the respiratory tract cannulae into the lungs to cause the rats to be under hypoxic state (PaO2 Δ 75 mmHg). The thienopyrimidine derivatives listed in Table 2 were intravenously administered to these hypoxemic model rats continuously at a rate of 0.1 mg/kg/min, and arterial blood oxygen partial pressure value (PaO2) of each rat was measured at the time point of 10 minutes after completion of administration using a blood gas analyzer (Ciba Corning 800 series). Gains (ΔPaO2) were determined based on results of PaO2 measurement made before and after administration of the test compounds.

[1] = quinazoline derivatives, hypoxic state (PaO2≦75 mmHg) by olive oil-charcoal powder suspension
[2] = thienopyrimidine derivatives, hypoxic state (PaO2 Δ 75 mmHg) by olive oil-charcoal powder suspension

C=CCNc1nc(NCC(C)(C)C)nc2ccc([N+](=O)[O-])cc12 [Example 5, 4-Allylamino-2-neopentylamino-6-nitroquinazoline] gave a ΔPaO2 (hypoxemic model rats; [1]) of 43 mmHg and a melting point of 167 to 168 °C.
In the case of C=CCNc1nc(NCCCCCCCCC)c2scc(C)c2n1 [Example 80, 2-Allylamino-4-nonylamino-7-methylthieno[3,2-d]pyrimidine], the ΔPaO2 (hypoxemic model rats; [2]) is reported as 28 mmHg and the melting point is reported as 65 to 66 °C.
With C=CCNc1nc(NCCC)c2cc([N+](=O)[O-])ccc2n1 [Example 10, 2-Allylamino-6-nitro-4-propylaminoquinazoline] the ΔPaO2 (hypoxemic model rats; [1]) was 34 mmHg and the melting point was 211 to 212 °C.
C=CCNc1nc(NCCOCCC)c2cc([N+](=O)[O-])ccc2n1 [Example 39, 2-Allylamino-6-nitro-4-(2-propoxyethylamino)quinazoline] showed a ΔPaO2 (hypoxemic model rats; [1]) of 30 mmHg and a melting point of 156 to 157 °C.
Compound CCCCNc1nc(NCC=C(C)C)c2cc([N+](=O)[O-])ccc2n1 [Example 60, 2-Butylamino-4-(3-methyl-2-butenylamino)-6-nitroquinazoline] has a ΔPaO2 (hypoxemic model rats; [1]) of 27 mmHg and a melting point of 171 to 172 °C.
With C=CCNc1nc(NCc2ccccc2)nc2ccc([N+](=O)[O-])cc12 [Example 6, 4-Allylamino-2-benzylamino-6-nitroquinazoline] the ΔPaO2 (hypoxemic model rats; [1]) was 48 mmHg and the melting point was 216 to 217 °C.
For C=CCNc1nc(NC(C)(C)C)c2scc(C)c2n1 [Example 68, 2-Allylamino-4-t-butylamino-7-methylthieno[3,2-d] pyrimidine], the ΔPaO2 (hypoxemic model rats; [2]) was 31 mmHg and the melting point was 89 to 90 °C.
In the case of C=CCNc1nc(NCC=C)c2cc(Cl)ccc2n1 [Example 1, 2,4-Diallylamino-6-chloroquinazoline], the ΔPaO2 (hypoxemic model rats; [1]) is reported as 35 mmHg and the melting point is reported as 78 to 79 °C.
Work on C=CCNc1nc(NCCCC)c2scc(C)c2n1 [Example 81, 2-Allylamino-4-butylamino-7-methylthieno[3,2-d]pyrimidine] yielded a ΔPaO2 (hypoxemic model rats; [2]) of 29 mmHg and a melting point of 68 to 70 °C.
In the case of C=CCNc1nc(NC)c2cc([N+](=O)[O-])ccc2n1 [Example 21, 2-Allylamino-4-methylamino-6-nitroquinazoline], the ΔPaO2 (hypoxemic model rats; [1]) is reported as 26 mmHg and the melting point is reported as 211 to 212 °C.
C=CCNc1nc(NC(C)CC)c2scc(C)c2n1 (centres unmarked) [Example 84, 2-Allylamino-7-methyl-4-(1-methylpropylamino)thieno[3,2-d] pyrimidine] showed a ΔPaO2 (hypoxemic model rats; [2]) of 27 mmHg and a melting point of 91 to 92 °C.
Compound C=CCNc1nc(NC23CC4CC(CC(C4)C2)C3)c2scc(C)c2n1 [Example 79, 4-(1-Adamantylamino)-2-allylamino-7-methylthieno[3,2-d] pyrimidine] has a ΔPaO2 (hypoxemic model rats; [2]) of 36 mmHg and a melting point of 107 to 109 °C.
With C=CCNc1nc(NCC=C)c2scc(CC)c2n1 [Example 103, 2,4-Diallylamino-7-ethylthieno[3,2-d]pyrimidine] the ΔPaO2 (hypoxemic model rats; [2]) was 30 mmHg and the melting point was 55 °C.
C=CCNc1nc(NCC)c2scc(C)c2n1 [Example 76, 2-Allylamino-4-ethylamino-7-methylthieno[3,2-d]pyrimidine] gave a ΔPaO2 (hypoxemic model rats; [2]) of 33 mmHg and a melting point of 96 to 97 °C.
In the case of C=CCNc1nc(NCC=C)c2scc(C)c2n1 [Example 66, 2,4-Diallylamino-7-methylthieno[3,2-d]pyrimidine], the ΔPaO2 (hypoxemic model rats; [2]) is reported as 26 mmHg and the melting point is reported as 77 to 80 °C.
For C=CCNc1nc(NCC=C)c2cc([N+](=O)[O-])ccc2n1 [Example 3, 2,4-Diallylamino-6-nitroquinazoline], the ΔPaO2 (hypoxemic model rats; [1]) was 28 mmHg and the melting point was 198 to 200 °C (dec.).
With C=CCNc1nc(NCCCCC)c2cc([N+](=O)[O-])ccc2n1 [Example 25, 2-Allylamino-6-nitro-4-pentylaminoquinazoline hydrochloride] the ΔPaO2 (hypoxemic model rats; [1]) was 46 mmHg.
C=CCNc1nc(NC2CCCCC2)c2scc(C)c2n1 [Example 70, 2-Allylamino-4-cyclohexylamino-7-methylthieno[3,2-d] pyrimidine hydrochloride] showed a ΔPaO2 (hypoxemic model rats; [2]) of 42 mmHg.
Work on C=CCNc1nc(NCCCCC)nc2ccc([N+](=O)[O-])cc12 [Example 35, 4-Allylamino-6-nitro-2-pentylaminoquinazoline hydrochloride] yielded a ΔPaO2 (hypoxemic model rats; [1]) of 34 mmHg.
For C=CCNc1nc(NC(C)C)nc2ccc([N+](=O)[O-])cc12 [Example 18, 4-Allylamino-2-isopropylamino-6-nitroquinazoline], the ΔPaO2 (hypoxemic model rats; [1]) was 30 mmHg and the melting point was 150 to 151 °C.
C=CCNc1nc(NC2CCCCC2)nc2ccc([N+](=O)[O-])cc12 [Example 7, 4-Allylamino-2-cyclohexylamino-6-nitroquinazoline] gave a ΔPaO2 (hypoxemic model rats; [1]) of 35 mmHg and a melting point of 183 to 184 °C.
C=CCNc1nc(NCC)c2cc([N+](=O)[O-])ccc2n1 [Example 22, 2-Allylamino-4-ethylamino-6-nitroquinazoline] showed a ΔPaO2 (hypoxemic model rats; [1]) of 27 mmHg and a melting point of 215 to 216 °C.
For C=CCNc1nc(NCCC)nc2ccc([N+](=O)[O-])cc12 [Example 4, 4-Allylamino-6-nitro-2-propylaminoquinazoline], the ΔPaO2 (hypoxemic model rats; [1]) was 34 mmHg and the melting point was 197 to 198 °C.
In the case of C=CCNc1nc(NC2CCCC2)c2cc([N+](=O)[O-])ccc2n1 [Example 27, 2-Allylamino-4-cyclopentylamino-6-nitroquinazoline hydrochloride], the ΔPaO2 (hypoxemic model rats; [1]) is reported as 35 mmHg.
